Drawing on ChEMBL document CHEMBL5576074, “[1,2,4]Triazolo[1,5-a]pyrimidine derivatives: Structure-activity relationship study leading to highly selective ENPP1 inhibitors” (Bioorg Med Chem Lett, 2024), this text covers inhibition and IC50 for 21 compounds.

SMILES strings stand for the structures. pIC50: −log10 of the molar value.

The target in assay [1] is T1, Ectonucleotide pyrophosphatase/phosphodiesterase family member 3 (Homo sapiens) (UniProt O14638).
T1 sequence (whole entry): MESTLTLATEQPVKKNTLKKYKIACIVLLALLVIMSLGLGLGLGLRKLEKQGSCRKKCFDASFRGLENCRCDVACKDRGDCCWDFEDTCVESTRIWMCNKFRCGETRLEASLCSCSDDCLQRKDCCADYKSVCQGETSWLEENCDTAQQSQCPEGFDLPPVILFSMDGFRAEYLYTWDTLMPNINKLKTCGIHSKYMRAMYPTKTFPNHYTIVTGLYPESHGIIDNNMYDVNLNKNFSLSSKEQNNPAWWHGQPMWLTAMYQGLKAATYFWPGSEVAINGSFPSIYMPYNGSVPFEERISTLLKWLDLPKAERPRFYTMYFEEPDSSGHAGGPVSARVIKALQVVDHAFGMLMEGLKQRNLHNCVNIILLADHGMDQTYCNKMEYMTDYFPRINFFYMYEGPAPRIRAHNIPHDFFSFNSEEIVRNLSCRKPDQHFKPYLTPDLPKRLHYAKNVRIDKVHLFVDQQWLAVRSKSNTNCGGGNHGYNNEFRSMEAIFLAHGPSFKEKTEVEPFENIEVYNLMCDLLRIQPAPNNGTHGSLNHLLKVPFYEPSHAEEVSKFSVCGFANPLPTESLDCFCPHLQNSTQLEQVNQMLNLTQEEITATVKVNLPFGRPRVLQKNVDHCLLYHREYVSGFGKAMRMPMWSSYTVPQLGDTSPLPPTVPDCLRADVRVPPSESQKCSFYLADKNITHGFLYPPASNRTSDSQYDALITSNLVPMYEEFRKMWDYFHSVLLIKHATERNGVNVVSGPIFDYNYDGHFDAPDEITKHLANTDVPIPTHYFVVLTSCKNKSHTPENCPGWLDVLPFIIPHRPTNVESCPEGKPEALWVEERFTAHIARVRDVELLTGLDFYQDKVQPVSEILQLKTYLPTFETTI
The experiment in a line: Inhibition of ENPP3 (unknown origin) at 10 uM relative to control.

For assay [2], the target named is T2, Ectonucleotide pyrophosphatase/phosphodiesterase family member 1 (Homo sapiens, UniProt P22413).
T2 sequence (P22413 whole entry): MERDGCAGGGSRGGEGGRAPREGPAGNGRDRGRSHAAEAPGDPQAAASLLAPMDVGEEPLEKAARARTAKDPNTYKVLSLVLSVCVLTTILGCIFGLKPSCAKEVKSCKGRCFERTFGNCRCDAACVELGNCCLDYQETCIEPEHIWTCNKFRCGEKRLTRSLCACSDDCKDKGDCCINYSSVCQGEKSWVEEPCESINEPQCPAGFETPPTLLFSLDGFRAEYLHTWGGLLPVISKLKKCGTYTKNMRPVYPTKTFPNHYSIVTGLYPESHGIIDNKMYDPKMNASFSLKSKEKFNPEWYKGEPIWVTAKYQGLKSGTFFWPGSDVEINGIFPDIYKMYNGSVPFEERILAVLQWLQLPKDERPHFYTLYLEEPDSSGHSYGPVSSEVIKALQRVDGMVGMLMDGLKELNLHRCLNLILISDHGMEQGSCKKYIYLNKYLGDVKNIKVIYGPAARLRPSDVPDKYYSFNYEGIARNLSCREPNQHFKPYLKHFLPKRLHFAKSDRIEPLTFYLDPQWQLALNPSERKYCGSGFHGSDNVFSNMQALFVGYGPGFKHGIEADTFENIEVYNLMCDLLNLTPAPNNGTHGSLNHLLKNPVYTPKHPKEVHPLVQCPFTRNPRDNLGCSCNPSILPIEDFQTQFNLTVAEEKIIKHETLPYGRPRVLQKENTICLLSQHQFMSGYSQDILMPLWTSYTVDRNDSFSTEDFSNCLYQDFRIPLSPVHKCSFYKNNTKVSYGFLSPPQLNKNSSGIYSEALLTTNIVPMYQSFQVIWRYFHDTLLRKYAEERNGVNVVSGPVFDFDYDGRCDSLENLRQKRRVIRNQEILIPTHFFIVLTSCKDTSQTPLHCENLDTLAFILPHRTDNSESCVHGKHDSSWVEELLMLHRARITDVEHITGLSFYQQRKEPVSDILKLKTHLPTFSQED
The experiment in a line: Inhibition of ENPP1 (unknown origin).

For assay [3], the target named is T3, Glycerophosphocholine cholinephosphodiesterase ENPP6 (Homo sapiens) (UniProt Q6UWR7).
T3 sequence (whole entry): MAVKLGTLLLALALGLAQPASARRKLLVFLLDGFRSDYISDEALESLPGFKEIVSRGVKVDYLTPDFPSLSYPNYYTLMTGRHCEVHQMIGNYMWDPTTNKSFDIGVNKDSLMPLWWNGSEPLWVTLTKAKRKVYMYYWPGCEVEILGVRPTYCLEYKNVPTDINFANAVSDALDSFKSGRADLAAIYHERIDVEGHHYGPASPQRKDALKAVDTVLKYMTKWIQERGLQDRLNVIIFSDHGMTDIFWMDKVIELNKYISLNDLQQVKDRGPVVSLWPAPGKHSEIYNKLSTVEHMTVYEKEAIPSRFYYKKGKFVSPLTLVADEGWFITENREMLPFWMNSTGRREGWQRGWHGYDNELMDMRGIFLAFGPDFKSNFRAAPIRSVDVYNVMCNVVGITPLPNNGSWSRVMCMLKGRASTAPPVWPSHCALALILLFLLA
The experiment in a line: Inhibition of ENPP6 (unknown origin) at 50 uM relative to control.

Assay [4] addresses T4, Autotaxin (Homo sapiens, UniProt Q13822). The experiment in a line: Inhibition of ENPP2 (unknown origin).
The target of assay [5] is T1, Ectonucleotide pyrophosphatase/phosphodiesterase family member 3 (Homo sapiens). The experiment in a line: Inhibition of ENPP3 (unknown origin) at 50 uM relative to control.
For assay [6], the target named is T5, Glycerophosphocholine cholinephosphodiesterase ENPP6 (Homo sapiens, UniProt Q6UWR7).
T5 sequence (Q6UWR7 whole entry): T3 sequence (whole entry)
The experiment in a line: Inhibition of ENPP6 (unknown origin).

The target in assay [7] is T4, Autotaxin. The experiment in a line: Inhibition of ENPP2 (unknown origin) at 50 uM relative to control.
The target of assay [8] is T6, Ectonucleotide pyrophosphatase/phosphodiesterase family member 3 (Homo sapiens, UniProt O14638).
T6 sequence (O14638 whole entry): T1 sequence (whole entry)
The experiment in a line: Inhibition of ENPP3 (unknown origin).

Assay [9] addresses T6, Ectonucleotide pyrophosphatase/phosphodiesterase family member 3. The experiment in a line: Inhibition of ENPP3 (unknown origin) assessed as reduction in 2'3'-cGAMP hydrolysis by AMP-Glo assay.
Assay [10] deals with T1, Ectonucleotide pyrophosphatase/phosphodiesterase family member 3 (Homo sapiens). The experiment in a line: Inhibition of ENPP3 (unknown origin) assessed as reduction in 2'3'-cGAMP hydrolysis at 50 uM by AMP-Glo assay relative to control.
The target of assay [11] is T6, Ectonucleotide pyrophosphatase/phosphodiesterase family member 3. The experiment in a line: Inhibition of ENPP3 (unknown origin) assessed as reduction in ATP hydrolysis by AMP-Glo assay.
For assay [12], the target named is T1, Ectonucleotide pyrophosphatase/phosphodiesterase family member 3 (Homo sapiens). The experiment in a line: Inhibition of ENPP3 (unknown origin) assessed as reduction in ATP hydrolysis at 50 uM by AMP-Glo assay relative to control.

The inhibition is how much of the control response was suppressed. Usually pIC50 stands for the negative decadic logarithm of the IC50, by convention in mol/L.

The compound `Cc1nc2ncnn2c(N2CCCC2)c1Cc1ccccc1` showed an inhibition in assay [1] of 16%.
On the same count and under the same terms, the result for `Cc1nc2ncnn2c(N2CCCCCC2)c1Cc1ccccc1` reads 5%.
For `Cc1nc2ncnn2c(N(C)C)c1Cc1ccc(N)cc1`, the pIC50 was 6.33 in [2], below 4.30 against Autotaxin [4], below 4.30 in [6] and below 4.30 in assay [8]. Besides, the inhibition in assay [3] is below 1%; in assay [5], 12%; on Autotaxin [7], 7.7%.
As to `Cc1nc2ncnn2c2c1Cc1ccccc1N2`, the negative-log IC50 (pIC50) was below 4.52 in assay [2], below 4.30 on Autotaxin [4], below 4.30 in [6] and below 4.30 in assay [8]. Moreover, the values for the inhibition (in assay [3]; in assay [5]; at Autotaxin [7]) were below 1%, 21% and below 1%, respectively.
With `Cc1nc2ncnn2c(N(C)C)c1Cc1ccc(Cl)cc1`, the pIC50 in [2] is 5.24; against Autotaxin [4] it was below 4.30; in assay [6], below 4.30; in assay [8], below 4.30. The inhibition was found to be 2% in assay [3], 1.5% in assay [5] and 4.9% against Autotaxin [7].
Regarding `Cc1nc2ncnn2c(N(C)C)c1Cc1cccc(F)c1`, the pIC50 in assay [2] was 5.82; against Autotaxin [4], below 4.30; in assay [6] it was below 4.30; in assay [8], below 4.30. Moreover, the inhibition in assay [3] was below 1%; in assay [5] it was 6.3%; at Autotaxin [7], 14%.
With `Cc1nc2ncnn2c(N(C)Cc2ccccc2)c1Cc1cccc(N)c1`, the pIC50 in assay [2] is below 4.52; against Autotaxin [4], below 4.30; in assay [6] it was below 4.30; in assay [8], below 4.30. Also, the inhibition (in [3]; in assay [5]; against Autotaxin [7]) was below 1% each time.
Turning to `Cc1nc2ncnn2c(N2CCC(C)CC2)c1Cc1ccccc1`, the inhibition in assay [1] worked out at 2%.
`Cc1nc2ncnn2c(N2CCCCC2)c1Cc1ccccc1` showed an inhibition in assay [1] of 1%.
Turning to `Cc1nc2ncnn2c(NCCCCC(=O)O)c1Cc1cccc(N)c1`, the pIC50 in assay [2] is 5.44; on Autotaxin [4], below 4.30; in assay [6] it was below 4.30; in [8] it was below 4.30. Moreover, the inhibition in [3] amounted to 3.5%; in assay [5], 22%; against Autotaxin [7], 27%.
With `Cc1nc2ncnn2c(N(C)C)c1Cc1ccccc1`, the negative logarithm of the IC50 (pIC50) is 6.13 in assay [2]; below 4.30 against Autotaxin [4]; below 4.30 in [9]; below 4.30 in [6]; below 4.30 in assay [8]; below 4.30 in assay [11]. The inhibition in [3] is below 1%; in assay [5], 6.3%; against Autotaxin [7] it was 31%; in assay [10], below 1%; in assay [12] it was 7.5%; in [1], 19%.
Turning to `CCc1nc2ncnn2c(N(CC)Cc2ccccc2)c1Cc1ccccc1`, the inhibition in assay [1] came to 2%.
In the case of `CC(=O)Nc1ccc(Cc2c(C)nc3ncnn3c2N(C)C)cc1`, the negative-log IC50 (pIC50) in assay [2] is 5.31; against Autotaxin [4], below 4.30; in [6], below 4.30; in assay [8] it was below 4.30. Besides, the inhibition was 2.3% in assay [3], 8.5% in [5] and 5.1% at Autotaxin [7].
`Cc1nc2ncnn2c(N(C)C)c1Cc1cccc(Cl)c1`: the pIC50 in assay [2] was 5.96; on Autotaxin [4], below 4.30; in [6], below 4.30; in assay [8] it was below 4.30. In addition, the inhibition in assay [3] was determined as 1.3%; in assay [5] it was 8.7%; against Autotaxin [7], 19%.
For the compound `COCCNc1c(Cc2ccccc2)c(C)nc2ncnn12`, the negative logarithm of the IC50 (pIC50) in assay [2] is below 4.52; at Autotaxin [4] it was below 4.30; in assay [6], below 4.30; in assay [8], below 4.30. Further, the inhibition in assay [3] was below 1%; in assay [5] it was 3.3%; at Autotaxin [7] it was below 1%.
Regarding `Cc1nc2ncnn2c(NCc2cccnc2)c1Cc1cccc(N)c1`, the pIC50 was 5.15 in assay [2], below 4.30 at Autotaxin [4], below 4.30 in assay [6] and below 4.30 in assay [8]. Also, the inhibition is below 1% in [3], 12% in assay [5] and below 1% on Autotaxin [7].
Turning to `CCNc1c(Cc2ccccc2)c(C)nc2ncnn12`, the pIC50 in [2] is 4.66; on Autotaxin [4], below 4.30; in assay [6], below 4.30; in assay [8], below 4.30. The inhibition was below 1% in assay [3], 7% in [5] and 7.8% against Autotaxin [7].
Regarding `CCN(CC)c1c(Cc2ccccc2)c(C)nc2ncnn12`, the pIC50 was below 4.52 in assay [2], below 4.30 against Autotaxin [4], below 4.30 in assay [6] and below 4.30 in [8]. Besides, the inhibition is below 1% in assay [3], below 1% in [5] and 1.9% on Autotaxin [7].
Take `Cc1nc2ncnn2c(N(C)C)c1Cc1ccccc1[N+](=O)[O-]`: the negative-log IC50 (pIC50) in [2] is 5.51; against Autotaxin [4] it was below 4.30; in assay [6] it was below 4.30; in assay [8] it was below 4.30. For the same compound, the inhibition was below 1% in assay [3], 6.8% in [5] and 4.7% at Autotaxin [7].
As to `CNc1c(Cc2ccccc2)c(C)nc2ncnn12`, the pIC50 in assay [2] is below 4.52; against Autotaxin [4], below 4.30; in assay [6], below 4.30; in [8] it was below 4.30. The inhibition was below 1% in [3], 10% in [5] and below 1% against Autotaxin [7].
For `COc1ccc(Cc2c(C)nc3ncnn3c2N(C)C)cc1OC`, the pIC50 in [2] was 5.89; at Autotaxin [4], below 4.30; in assay [6], below 4.30; in [8], below 4.30. In addition, the results for the inhibition (in assay [3]; in [5]; against Autotaxin [7]) were below 1%, 4.6% and 6.8%, respectively.
